The subject of one series is intracellular HBV DNA. The series can be described thus: Real-time PCR for intracellular HBV DNA in HepAD38 cells. In kind it is cell-based. The settings on record: Hepatitis B virus, HePAD38, 65 h, 65 hours treatment. A general note: Quantitative PCR measures a nucleic acid by following its amplification.
A short description of series [1]: Cell viability assay (EZ-Cytox), cytotoxicity. The format is cell-based. The settings on record: human, HepAD38 cells; for viability at 65 h, 100 µM: read-out: Cytotoxicity % Livability (@100 μM). As to the method: HepAD38 cells were cultured for 2 days in Dulbecco's Modified Eagle's medium (Welgene, LM001-05) supplemented with 10% FBS without tetracycline. […] After 65 hours of treatment, viability was measured using EZ-Cytox cell viability assay kit (Daeil Lab Service) according to the manufacturer's instructions. The absorbance was measured at 450 nm using a spectrophotometer (Spark, Tecan).

The values below come from patent publication US20250009742A1 (priority 2021, published 2025).

For orientation: IC50 means the concentration that gives 50% inhibition. Low readings indicate greater potency in that assay, high ones weaker potency in that assay. The CC50 is the concentration giving 50% cytotoxicity. A high value points to lower toxicity to the cells. `COc1ccc(N(Cc2cc(C(F)(F)F)[nH]n2)C(=O)Nc2ccc(F)c(Cl)c2)nn1` [Example 96, 3-(3-chloro-4-fluorophenyl)-1-(6-methoxypyridazin-3-yl)-1-((5-(trifluoromethyl)-1H-pyrazol-3-yl)methyl)urea] gave a half-maximal inhibitory concentration (IC50) in the series with intracellular HBV DNA of over 1100 nM. For the same molecule, in series [1], the CC50 at 65 h was over 100000 nM and the viability at 65 h, 100 µM stood at 93.4%.
Taken in the same sequence, the figures for `COc1ccc(N(Cc2cc(C(F)F)[nH]n2)C(=O)Nc2ccc(F)c(Cl)c2)nn1` [Example 97, 3-(3-chloro-4-fluorophenyl)-1-((5-(difluoromethyl)-1H-pyrazol-3-yl)methyl)-1-(6-methoxypyridazin-3-yl)urea] were over 1100 nM, over 100000 nM and 86.2%.
Taken in the same sequence, the figures for `COc1cc(N(Cc2cc(C(F)F)[nH]n2)C(=O)Nc2ccc(F)c(Cl)c2)cnn1` [Example 99, 3-(3-chloro-4-fluorophenyl)-1-((5-(difluoromethyl)-1H-pyrazol-3-yl)methyl)-1-(6-methoxypyridazin-4-yl)urea] were 890 nM, over 100000 nM and 83.4%.
Molecule `COc1ncc(N(Cc2n[nH]c(C(F)(F)F)c2C(C)(C)O)C(=O)Nc2ccc(F)c(Cl)c2)cn1` [Example 102, 3-(3-chloro-4-fluorophenyl)-1-((4-(2-hydroxypropan-2-yl)-5-(trifluoromethyl)-1H-pyrazol-3-yl)methyl)-1-(2-methoxypyrimidin-5-yl)urea] had an IC50 with intracellular HBV DNA of over 1100 nM. Also, in series [1], the CC50 at 65 h is over 66000 nM and the viability at 65 h, 100 µM came out at 3.8%.
Taken in the same sequence, the figures for `COC12CC(N(Cc3cc(C(F)(F)F)[nH]n3)C(=O)Nc3ccc(F)c(Cl)c3)(C1)C2` [Example 105, 3-(3-chloro-4-fluorophenyl)-1-(3-methoxybicyclo[1.1.1]pentan-1-yl)-1-((5-(trifluoromethyl)-1H-pyrazol-3-yl)methyl)urea] were 34 nM, 55800 nM and 3.5%.
Taken in the same sequence, the figures for `CC(C)(O)c1cc(N(Cc2n[nH]c3c2CCCO3)C(=O)Nc2ccc(F)c(Cl)c2)on1` [Example 109, 3-(3-chloro-4-fluorophenyl)-1-(3-(2-hydroxypropan-2-yl)isoxazol-5-yl)-1-((1,4,5,6-tetrahydropyrano[2,3-c]pyrazol-3-yl)methyl)urea] were 150 nM, over 100000 nM and 82%.
Take `CC(C)(O)c1ccc(N(Cc2n[nH]c3c2CCCO3)C(=O)Nc2ccc(F)c(Cl)c2)cn1` [Example 110, 3-(3-chloro-4-fluorophenyl)-1-(6-(2-hydroxypropan-2-yl)pyridin-3-yl)-1-((1,4,5,6-tetrahydropyrano[2,3-c]pyrazol-3-yl)methyl)urea]: the IC50 with intracellular HBV DNA is over 1100 nM. This molecule also yielded a CC50 at 65 h in series [1] of over 100000 nM.
`CC(C)(O)c1ccc(N(Cc2n[nH]c3c2CCOC3)C(=O)Nc2ccc(F)c(Cl)c2)cn1` [Example 111, 3-(3-chloro-4-fluorophenyl)-1-(6-(2-hydroxypropan-2-yl)pyridin-3-yl)-1-((1,4,5,7-tetrahydropyrano[3,4-c]pyrazol-3-yl)methyl)urea] had a 50% inhibitory concentration (IC50) in the series with intracellular HBV DNA of over 1100 nM. The half-maximal cytotoxic concentration (CC50) at 65 h in series [1] was over 100000 nM.
Taken in the same sequence, the figures for `CC(C)(O)c1cc(N(Cc2n[nH]c3c2CCOC3)C(=O)Nc2ccc(F)c(Cl)c2)ccn1` [Example 112, 3-(3-chloro-4-fluorophenyl)-1-(2-(2-hydroxypropan-2-yl)pyridin-4-yl)-1-((1,4,5,7-tetrahydropyrano[3,4-c]pyrazol-3-yl)methyl)urea] were over 1100 nM and over 66000 nM.
In the case of `CC(C)(O)c1cc(N(Cc2n[nH]c3c2CCCO3)C(=O)Nc2ccc(F)c(Cl)c2)ccn1` [Example 113, 3-(3-chloro-4-fluorophenyl)-1-(2-(2-hydroxypropan-2-yl)pyridin-4-yl)-1-((1,4,5,6-tetrahydropyrano[2,3-c]pyrazol-3-yl)methyl)urea], the half-inhibitory concentration (IC50) with intracellular HBV DNA was over 1100 nM. In series [1], the cytotoxic concentration (CC50) at 65 h is over 100000 nM and the viability at 65 h, 100 µM is 102%.
As for `CC(C)(O)c1cc(N(Cc2n[nH]c3c2CCOC3)C(=O)Nc2ccc(F)c(Cl)c2)on1` [Example 115, 3-(3-chloro-4-fluorophenyl)-1-(3-(2-hydroxypropan-2-yl)isoxazol-5-yl)-1-((1,4,5,7-tetrahydropyrano[3,4-c]pyrazol-3-yl)methyl)urea], the half-maximal inhibitory concentration (IC50) with intracellular HBV DNA was over 1100 nM. Also, in series [1], the CC50 at 65 h is over 100000 nM and the viability at 65 h, 100 µM stood at 84.1%.
Consider `COc1cc(N(Cc2cc(C(F)(F)F)[nH]n2)C(=O)Nc2ccc(F)c(Cl)c2)cnc1C#N` [Example 118, 3-(3-chloro-4-fluorophenyl)-1-(6-cyano-5-methoxypyridin-3-yl)-1-((5-(trifluoromethyl)-1H-pyrazol-3-yl)methyl)urea], for which the 50% inhibitory concentration (IC50) in the series on intracellular HBV DNA was over 1100 nM. Besides, in series [1], the CC50 at 65 h was under 50000 nM and the viability at 65 h, 100 µM came out at 31.3%.
As to `COc1ncc(N(Cc2cc(C(F)(F)F)[nH]n2)C(=O)Nc2ccc(F)c(Cl)c2)cc1C#N` [Example 119, 3-(3-chloro-4-fluorophenyl)-1-(5-cyano-6-methoxypyridin-3-yl)-1-((5-(trifluoromethyl)-1H-pyrazol-3-yl)methyl)urea], half-maximal inhibition with intracellular HBV DNA (IC50) was put at 320 nM. In addition, in series [1], the CC50 at 65 h was under 50000 nM and the viability at 65 h, 100 µM turned out to be 18.8%.
`N#Cc1cncc(N(Cc2n[nH]c3c2CCCO3)C(=O)Nc2ccc(F)c(Cl)c2)c1` [Example 120, 3-(3-chloro-4-fluorophenyl)-1-(5-cyanopyridin-3-yl)-1-((1,4,5,6-tetrahydropyrano[2,3-c]pyrazol-3-yl)methyl)urea] registered an IC50 with intracellular HBV DNA of 95 nM. Besides, in series [1], the CC50 at 65 h is over 100000 nM and the viability at 65 h, 100 µM is 92%.
`N#Cc1cc(N(Cc2n[nH]c3c2CCCO3)C(=O)Nc2ccc(F)c(Cl)c2)ccn1` [Example 122, 3-(3-chloro-4-fluorophenyl)-1-(2-cyanopyridin-4-yl)-1-((1,4,5,6-tetrahydropyrano[2,3-c]pyrazol-3-yl)methyl)urea]: inhibition in the series on intracellular HBV DNA was half-maximal at 350 nM (IC50). In series [1], this molecule had a half-maximal cytotoxic concentration (CC50) at 65 h of over 100000 nM.
Molecule `N#Cc1ccc(N(Cc2n[nH]c3c2COCC3)C(=O)Nc2ccc(F)c(Cl)c2)cn1` [Example 125, 3-(3-chloro-4-fluorophenyl)-1-(6-cyanopyridin-3-yl)-1-((1,4,6,7-tetrahydropyrano[4,3-c]pyrazol-3-yl)methyl)urea] registered a half-inhibitory concentration (IC50) with intracellular HBV DNA of 230 nM. In series [1], the CC50 at 65 h was over 100000 nM and the viability at 65 h, 100 µM is 109%.
Regarding `N#Cc1ccc(N(Cc2n[nH]c3c2CCOC3)C(=O)Nc2ccc(F)c(Cl)c2)cn1` [Example 127, 3-(3-chloro-4-fluorophenyl)-1-(6-cyanopyridin-3-yl)-1-((1,4,5,7-tetrahydropyrano[3,4-c]pyrazol-3-yl)methyl)urea], in the series with intracellular HBV DNA, the IC50 worked out at 510 nM. In series [1], the CC50 at 65 h was over 100000 nM and the viability at 65 h, 100 µM was 95%.
In the series on intracellular HBV DNA, `N#Cc1cc(N(Cc2n[nH]c3c2CCOC3)C(=O)Nc2ccc(F)c(Cl)c2)ccn1` [Example 128, 3-(3-chloro-4-fluorophenyl)-1-(2-cyanopyridin-4-yl)-1-((1,4,5,7-tetrahydropyrano[3,4-c]pyrazol-3-yl)methyl)urea] came in with an IC50 of 340 nM. For the same molecule, in series [1], the CC50 at 65 h was over 100000 nM and the viability at 65 h, 100 µM turned out to be 65.9%.
